Measurements published in patent US12414960B2, “Analogues of oleuropein and oleacein and uses thereof” (Attica Sciences Ltd., priority 2020, dated 2025).

How the values were obtained:
[1] = tested on: HeLa cervical cancer cells; assay: XTT cell growth assay, HeLa; format: cell-based, human; details: Homo sapiens, HeLa, 24 h, NS = not statistically significant, read-out: Effectiveness to suppress HeLa cell growth (cell growth inhibition)
Source text: (§1) The XTT assay is used to measure cellular metabolic activity as an indicator of cell viability, proliferation and cytotoxicity. This non-radioactive, colorimetric assay system was first described by Scudiero, et al. in 1988 (Paull, Kenneth D. et al., J Heterocycl Chem, 1988, 25: 911-914; Scudiero, Dominic A. et al., Cancer Res, 1988, 48: 4827-4833) and improved in subsequent years by several other investigators (Weislow, Owen S. et al., J Natl Cancer Inst, 1989, 81(8): 577-586; Roehm, N. W. et al., J Immunol Methods, 1991, 142: 257-265).
(§2) The XTT assay is based on the reduction of a yellow tetrazolium salt (sodium 3′-[1-(phenylaminocarbonyl)-3,4-tetrazolium]-bis (4-methoxy6-nitro) benzene sulfonic acid hydrate or XTT) to an orange formazan dye by metabolically active cells (FIG. 8). The formazan dye formed is soluble in aqueous solutions and is directly quantified using a scanning multiwell spectrophotometer (ELISA reader). An increase in number of living cells results in an increase in the overall activity of mitochondrial dehydrogenases in the sample. This increase directly correlates to the amount of orange formazan formed, as monitored by the absorbance. Reduced number of living cells leads to reduced metabolism of quaternary salt and therefore reduced absorption.
(§3) Cell viability was assessed using the XTT assay kit (Roche, Mannheim, Germany) as described previously (Kouka, Paraskevi et al., Oxid Med Cell Longev. 2019, Article ID 1870965). Briefly, cancer cells per well were cultured in a 96-well plate in Dulbecco's modified Eagle's medium (DMEM). Following a 24 h incubation, 5, 10 and 50 μM of the tested GS compound was diluted in a serum-free DMEM and administered for 24 h. Subsequently, 50 μL of the XTT reagent (50:1) was added to each well. After 4 h of incubation, the absorbance was monitored at 450 nm and also at 630 nm as a reference wavelength in a BioTek ELx800 microplate reader (BioTek Instruments Inc., Winooski, VT, USA). As a negative control, samples containing serum-free DMEM only were used.
HeLa is a human immortal cell line used in scientific research. It is the oldest and most commonly used human cell line. The line was derived from cervical cancer cells taken on Feb. 8, 1951 from Henrietta Lacks, a patient who died of cancer on Oct. 4, 1951.
(§4) The effects of exemplary compounds on cancer cell lines and one non-tumorigenic cell line (control) were investigated using a high throughput screening assay. More specifically, the effects of the GS compounds on cell growth was evaluated by the XTT assay for cell lines HepG2, HeLa, MCF7 ER+, MDA-MB-231, and MKN-45, and by the Cell Glo luminescence assay for cell lines MIA PaCa-2, HCT-116, MCF-10A, and PANC-1.

[2] = tested on: MCF-7 ER+ breast cancer cells; assay: XTT cell growth assay, MCF-7 ER+; format: cell-based, human; details: Homo sapiens, MCF7, 24 h, NS = not statistically significant, read-out: Effectiveness to suppress MCF7 cell growth (cell growth inhibition)
Source text: as §1, §2, §3
MCF-7 ER+ is a human breast cancer cell line isolated in 1970 from a person. Prior to MCF-7, it was not possible for cancer researchers to obtain a mammary cell line that was capable of living longer than a few months.
as §4

[3] = tested on: MDA-MB-231 triple negative breast cancer cells; assay: XTT cell growth assay, MDA-MB-231; format: cell-based, human; details: Homo sapiens, MDA-MB-231, 24 h, NS = not statistically significant, read-out: Effectiveness to suppress MDA-MB-231 cell growth (cell growth inhibition)
Source text: as §1, §2, §3
MDA-MB-231 is a human epithelial breast cancer cell line that was established from a pleural effusion of a person with a metastatic mammary adenocarcinomal and is one of the most commonly used breast cancer cell lines in medical research laboratories.
as §4

[4] = tested on: MCF-10A non-tumorigenic mammary epithelial cells; assay: Cell Glo luminescence cell growth assay, MCF-10A normal cells; format: cell-based, human
Source text: The CellTiter-Glo® Luminescent Cell Viability Assay (Promega Corporation; Madison, WI) is a homogeneous method of determining the number of viable cells in culture based on quantitation of the ATP present, an indicator of metabolically active cells. The homogeneous assay procedure involves adding the single reagent (CellTiter-Glo® Reagent) directly to cells cultured in serum-supplemented medium. The homogeneous “add-mix-measure” format results in cell lysis and generation of a luminescent signal proportional to the amount of ATP present. The amount of ATP is directly proportional to the number of cells present in culture.
Cancer cells (3,000 cells/well) were harvested in a 96-well plate. Then, the cancer cells were treated with GS compounds and incubated for 24 hours. The MT Cell Viability Substrate, NanoLuc® Enzyme and cell culture medium was equilibrated to 37° C. The 2× RealTime-Glo™ reagent was prepared by diluting the MT Cell Viability Substrate and NanoLuc® Enzyme in 37° C. cell culture medium to a 2× concentration for each reagent. […] The cells were kept for ˜20 minutes in the cell culture incubator and then luminescence was measured by using a plate-reading luminometer. […]
as §4, with “PANC-1. […]” for “PANC-1.”
The effect of GS27 on normal cell growth was evaluated using the MCF-10A cell line. […]
GS27, NDI-091143 and Nexletol (10 μM) were used to treat normal epithelial cells MCF-10A cells. […] Forty-eight hours post-treatment, the growth of MCF-10A cells was evaluated by CellTiter-Glo® Luminescent Cell Viability Assay, as discussed in Example 29.

[5] = ABTS radical cation scavenging assay; format: biochemical; details: NS = not statistically significant
Source text: The method of estimating antioxidant capacity, based on the ability to interact with the ABTS.+ radical cation was first performed by Miller et al. in 1993 (Miller, Nicholas et al., Clinical Science, 1993, 84: 407-412, “A novel method for measuring the antioxidant capacity and its application to monitoring the antioxidant status in premature neonates”). The mechanism of interaction of the antioxidant agents to be examined with the ABTS.+ radical is similar to that of the DPPH. radical, which can be inactivated either by the addition of an electron or by the addition of a hydrogen atom. However, unlike the DPPH. radical, which is a stable radical from the beginning, the ABTS.+ radical must be produced by the oxidation of ABTS. Thus, in order to estimate the antioxidant capacity of a substance, the formation of the ABTS.+ radical must first precede and the addition of the substance to be examined must follow. The addition of the antioxidant agent is performed after the production of the root ABTS.+ to avoid the interaction of the antioxidant agents with the oxidizing agents used for the oxidation of ABTS.
The oxidation of ABTS takes place either through chemical reactions with various reagents or through the action of enzymes such as peroxidases. The ABTS.+ radical from the moment it is formed is stable, has a green color and absorbs at 730 nm. When a substance with antioxidant activity is added to the solution, then the ABTS.+ radical is reduced by the addition of a hydrogen (or electron) atom, resulting in reduced visual absorption.
To assess the antioxidant capacity of the samples, the oxidation of ABTS was performed enzymatically through the action of horseradish peroxidase (HRP), in the presence of H2O2 (FIG. 3)
The anti-oxidant capacity of the GS compounds was evaluated by performing the ABTS assay as previously described (Kouka, Paraskevi et al., Oxid Med Cell Longev. 2019, Article ID 1870965). Briefly, in a total reaction volume of 1 mL in distilled water (dH2O), ABTS.^+ (1 mM), H2O2 (30 μM), and horseradish peroxidase (HRP) (6 μM) in 50 mM phosphate-buffered saline were added. The solution was incubated for 45 min at room temperature (RT) in the dark. Finally, 10 μL of the tested GS compound at various concentrations was added, and the absorbance was monitored on a Hitachi U-1900 radio beam spectrophotometer (serial no. 2023-029; Hitachi Ltd.) at 730 nm. In each experiment, a blank without the HRP was used, while the ABTS.^+ radical solution without the extract was used as the control. The RSC percentage of the tested extracts was calculated using the following equation: RSC (%)=[(ODcontrol−ODcompound)/ODcontrol]×100, where ODcontrol and OD sample are the optical density (OD) values of the control and the test sample, respectively.

[6] = Deoxyribose degradation assay (hydroxyl radical scavenging); format: biochemical; details: NS = not statistically significant
Description: The hydroxyl radical (OH.) is an extremely reactive in biological systems and has been implicated as highly damaging species in free radical pathology, capable of damaging biomolecules of the living cells. These radical combines with nucleotides in DNA and cause strand breakage leading to carcinogenesis, mutagenesis and cytotoxicity. Hydroxyl radical (OH.) scavenging capacity of an extract is directly related to its antioxidant activity.
The effect of extracts on hydroxyl radicals was assayed by using the deoxyribose method. 2-Deoxyribose is degraded on exposure to hydroxyl radicals generated by Fenton's reaction. The ability to neutralize the OH. is estimated as the rate of inhibition of the oxidation of 2-deoxyribose by the OH. (FIG. 5).
The measurement of the hydroxyl radical scavenging activity was evaluated for each of the GS compound by evaluating the pink chromogen absorption at 532 nm by spectrophotometry as described previously (Perjesi, Pal et al., Open Med Chem J., 2011, 5: 61-67

HepG2 liver cancer cells = assay: XTT cell growth assay, HepG2; format: cell-based, human; details: Homo sapiens, HepG2, 24 h, NS = not statistically significant, read-out: Effectiveness to suppress HepG2 cell growth (cell growth inhibition)
Source text: as §1, §2, §3
Hep G2 (or HepG2) is a human liver cancer cell line. Hep G2 is an immortal cell line which was derived from the liver tissue of an adolescent with a well-differentiated hepatocellular carcinoma. Hep G2 cells are a suitable in vitro model system for the study of polarized human hepatocytes.
as §4

[7] = tested on: MKN-45 gastric cancer cells; assay: XTT cell growth assay, MKN-45; format: cell-based, human; details: Homo sapiens, MKN-45, 24 h, NS = not statistically significant, read-out: Effectiveness to suppress MKN-45 cell growth (cell growth inhibition)
Source text: as §1, §2, §3
MKN-45 is a human gastric adenocarcinoma, established from the poorly differentiated adenocarcinoma of the stomach (medullary type) of a person.
as §4

ABTS Radical Cation Scavenging Assay IC50 [5] | Deoxyribose Degradation Assay IC50 [6] | SMILES | inhibition at 50 µM [1] | inhibition at 50 µM [2] | inhibition at 50 µM [3] | inhibition at 10 µM ([4]; Homo sapiens, MCF-10A, 10 uM, 24 h, normal cells, safety control, NS = not statistically significant, read-out: Effectiveness to suppress MCF10A cell growth (cell growth inhibition)) | inhibition at 50 µM (HepG2 liver cancer cells) | inhibition at 50 µM [7] | effect on MCF-10A normal cell growth ([4]; 10 μM, forty-eight hours post-treatment)
– | – | C/C=C(/C=O)[C@@H](CC=O)CC(=O)OC [GS16, (3S,4E)-4-Formyl-3-(2-oxoethyl)hex-4-enoic acid methyl ester] | 72.6% | 26.6% | 35% | 10.1% | – | – | –
50.2 μg extract/mL | 20 μg extract/mL | C/C=C(/C=O)[C@@H](CC=O)CC(=O)OCCc1cccc(O)c1 [GS20, (3S,4E)-4-formyl-3-(2-oxoethyl)-4-hexenoic acid 3-hydroxyphenethyl ester] | 56.4% | 36.1% | 56.4% | – | 50% | 84.1% | –
– | – | CC(C)(CCCCCC(O)CCCCCC(C)(C)C(=O)O)C(=O)O [Nexletol, reference compound] | – | – | – | – | – | – | inhibitory effect
